Source: patent US6403605B1, “Methods for the normalization of sexual response and amelioration of long term genital tissue degradation” (Queen's University at Kingston, priority 1998, dated 2002)

Tests used:
[1] = system: patients diagnosed with male erectile dysfunction with no major organic component; assay: Multi-center, double-blind, randomized, placebo-controlled study: duration of erection and time to erection; assay type: in vivo, human; settings: for Duration of Erection, Difference in Means: all attempts; for Time to Erection, Kaplan-Meier Median: all attempts (60 minutes if no erection); for Time to Erection, Kaplan-Meier Estimation of Median Time to Erection (Treatment Means): attempts when erection occurred, first eight attempts
Experimental: A multi-center, double-blind, randomized, placebo-controlled, three-armed study was conducted on 370 patients diagnosed with male erectile dysfunction with no major organic component. For each sequence, patients received placebo in one of the treatment periods, and a dose (2 mg, 4 mg, or 6 mg) of apomorphine in the other treatment period.
During treatment periods of the study, patients and their sexual partners were instructed to attempt intercourse a minimum of twice weekly. Each time the study drug was taken, a questionnaire was completed by the patient and by the partner and mailed to the study sponsor. The questionnaire recorded the date and time the study drug was taken, an evaluation of the erection, whether or not sexual intercourse had occurred, and satisfaction associated with each attempt. The patient also completed a diary which recorded the latency and duration of erections associated with the use of the study drug and antiemetic and concomitant medication usage and any adverse effects. If an erection occurred after administration to the patient of the study drug, the duration of erection and time-to-erection were recorded in the patient diary.
The data in Table 2 also indicate a dose-dependent, statistically significant difference of duration of erection, with a difference of almost 5 minutes between patients taking the 6 mg dose and those receiving placebo.
In those cases where no erection was achieved, a value of 60 minutes time-to-erection was used in the statistical analysis. The data in Table 3 show differences in latency periods between patients receiving apomorphine and those receiving placebo, but the differences probably reflect the inclusion in the data of 60 minute values for those cases in which no erection was achieved.

[2] = system: female rats; assay: Studies with female rats: sexual arousal behaviors; assay type: in vivo, rat; settings: female rats treated with combination of apomorphine and low doses of testosterone
Description: When co-administration of an androgen is utilized in this method of the invention, the androgen is given is doses sufficient to produce plasma concentrations of about 1 nmol/L to 200 nmol/L.

[3] = Pharmacokinetic evaluation of apomorphine (FIG. 1, mean plasma concentrations after sub-cutaneous and sublingual doses)

fraction of maximum blood serum levels reached ([3]; 12 minutes following buccal administration): one-fifth to one-fourth
plasma apomorphine levels sufficient to cause a therapeutic effect ([3]; interpolation of plasma curves for 2, 4, 6 mg up to about 20 minutes after administration): less than 0.25 ng/mL
time to maximum plasma concentrations ([3]; sub-lingual administration (formulation used in Tables 1-4)): about 60 minutes
SMILES: CN1CCc2cccc3c2[C@H]1Cc1ccc(O)c(O)c1-3 [Apomorphine, (R)-5,6,6a,7-tetrahydro-6-methyl-(4H)-dibenzo[de,g]quinoline-10,11-diol]
Duration of Erection, Difference in Means ([1]; 2 mg apomorphine vs placebo): 1.936 min
Duration of Erection, Difference in Mean ([1]; 2 mg apomorphine vs placebo, only attempts where erection was achieved): 1.811 min
Duration of Erection, Mean ([1]; 2 mg apomorphine, sublingual, all attempts (zero minutes if no erection)): 5.020 min
Time to Erection, Kaplan-Meier Median ([1]; 2 mg apomorphine): 42.17 min
Time to Erection, Kaplan-Meier Estimation of Median Time to Erection (Treatment Means) ([1]; 2 mg apomorphine): 11.33 min
Duration of Erection, Mean ([1]; 2 mg apomorphine, only attempts where erection was achieved): 10.82 min
Duration of Erection, Difference in Means ([1]; 4 mg apomorphine vs placebo): 3.578 min
Duration of Erection, Difference in Mean ([1]; 4 mg apomorphine vs placebo, only attempts where erection was achieved): 3.458 min
Duration of Erection, Mean ([1]; 4 mg apomorphine, sublingual, all attempts (zero minutes if no erection)): 6.903 min
Time to Erection, Kaplan-Meier Median ([1]; 4 mg apomorphine): 36.00 min
Time to Erection, Kaplan-Meier Estimation of Median Time to Erection (Treatment Means) ([1]; 4 mg apomorphine): 12.61 min
Duration of Erection, Mean ([1]; 4 mg apomorphine, only attempts where erection was achieved): 12.49 min
Duration of Erection, Difference in Means ([1]; 6 mg apomorphine vs placebo): 5.138 min
Duration of Erection, Difference in Mean ([1]; 6 mg apomorphine vs placebo, only attempts where erection was achieved): 4.925 min
Duration of Erection, Difference in Mean ([1]; 6 mg apomorphine vs placebo, only attempts where erection was achieved, listed as apomorphine): ~5 min
Duration of Erection, Mean ([1]; 6 mg apomorphine, sublingual, all attempts (zero minutes if no erection)): 8.393 min
Time to Erection, Kaplan-Meier Median ([1]; 6 mg apomorphine): 31.33 min
Time to Erection, Kaplan-Meier Estimation of Median Time to Erection (Treatment Means) ([1]; 6 mg apomorphine): 12.82 min
Duration of Erection, Mean ([1]; 6 mg apomorphine, only attempts where erection was achieved): 13.96 min
difference in median time-to-erection between drug and placebo ([1]; attempts successful in achieving an erection): no statistically significant difference
effect on duration of erection compared to placebo ([1]; doses tested (2, 4, 6 mg)): significant increase in the duration of erection
behaviors associated with sexual arousal [2]: exhibited lordosis, genital grooming and other behaviors typically associated with sexual arousal
